≈ marks a conversion by molar mass, not a printed value.

These results are taken from patent US10858360B2, “Tricyclic gyrase inhibitors” (priority 2011, dated 2020).

In one assay the test system is S. aureus ATCC 13709. Nature of the assay: MIC, S. aureus ATCC 13709 (Alamar Blue broth microdilution). It is filed as cell-based. Conditions: Alamar Blue read after overnight incubation at 35° C.; for MIC Sa: S. aureus; for MIC: Staphylococcus aureus, ATCC13709, S. aureus.
Another assay relates to E. coli ATCC 25922. Briefly: MIC, E. coli ATCC 25922. It is filed as cell-based. Conditions: Alamar Blue read after overnight incubation at 35° C.; for MIC Ec: E. coli; for MIC: Escherichia coli, ATCC25922, E. coli. (In general: Resazurin is reduced to fluorescent resorufin, in cell work by metabolically active cells.)

For `CNc1cc(F)cc2c1[nH]c1nc(Oc3cncc(-c4ccco4)c3)nc(N3CC4CC(N)C4C3)c12` (centres unmarked) [4.350], the “MIC Sa” value against S. aureus ATCC 13709 is at most 0.5 µg/mL. Also, the “MIC Ec” value against E. coli ATCC 25922 is 4 µg/mL (≈ 8.24 µM).

For `CNc1cc(F)cc2c1[nH]c1nc(Oc3cncc([S+](C)[O-])c3)nc(N3CC4C(N)C4C3)c12` (centres unmarked) [4.351], the “MIC Sa” value with S. aureus ATCC 13709 was at most 0.5 µg/mL. Besides, the “MIC Ec” value against E. coli ATCC 25922 is 2 µg/mL (≈ 4.28 µM).

As to `CNc1cc(F)cc2c1[nH]c1nc(Oc3cncc([S+](C)[O-])c3)nc(N3CC(N)C4(CC4)C3)c12` (centres unmarked) [4.352], the “MIC Sa” value with S. aureus ATCC 13709 is at most 0.5 µg/mL. The “MIC Ec” value in the assay with E. coli ATCC 25922 came out at 4 µg/mL (≈ 8.31 µM).

In general, MIC refers to the least concentration at which growth counts as inhibited. In the case of `CNc1cc(F)cc2c1[nH]c1nc(Oc3cncc([S+](C)[O-])c3)nc(N3CC4C[C@@H](N)C4C3)c12` (some centres unmarked) [4.353], the MIC with S. aureus ATCC 13709 was at most 0.5 µg/mL; against E. coli ATCC 25922, 2 µg/mL (≈ 4.15 µM).

As to `CNc1cc(F)cc2c1[nH]c1nc(Oc3cncc(SC)c3)nc(N3C[C@H](N)C4(CC4)C3)c12` [4.354], the minimal inhibitory concentration (MIC) against S. aureus ATCC 13709 was at most 0.5 µg/mL; against E. coli ATCC 25922 it was 1 µg/mL (≈ 2.15 µM).

For the compound `CNc1cc(F)cc2c1[nH]c1nc(Oc3cncc(SC)c3)nc(N3CC4C[C@@H](N)C4C3)c12` (some centres unmarked) [4.355], the minimal inhibitory concentration (MIC) with S. aureus ATCC 13709 and against E. coli ATCC 25922 was at most 0.5 µg/mL throughout.

As for `CNc1cc(F)cc2c1[nH]c1nc(Oc3cnc4c(c3)C(=O)NC4)nc(N3C[C@H](N)C4(CC4)C3)c12` [4.356], the MIC in the assay on S. aureus ATCC 13709 was at most 0.5 µg/mL; in the assay with E. coli ATCC 25922 it was 4 µg/mL (≈ 8.43 µM).

Consider `CNc1cc(F)cc2c1[nH]c1nc(Oc3cnc4c(c3)C(=O)NC4)nc(N3CC4C[C@@H](N)C4C3)c12` (some centres unmarked) [4.357], for which the MIC was at most 0.5 µg/mL in the assay with S. aureus ATCC 13709 and 4 µg/mL (≈ 8.43 µM) against E. coli ATCC 25922.

For `CNc1cc(F)cc2c1[nH]c1nc(Oc3ccc4c(c3)ncn4C)nc(N3CC4C[C@@H](N)C4C3)c12` (some centres unmarked) [4.358], the MIC was at most 0.5 µg/mL with S. aureus ATCC 13709 and 4 µg/mL (≈ 8.47 µM) against E. coli ATCC 25922.

In the case of `CNc1cc(F)cc2c1[nH]c1nc(Oc3cnc4c(c3)C(=O)N(C)C4)nc(N3CC4C[C@@H](N)C4C3)c12` (some centres unmarked) [4.359], the minimum inhibitory concentration (MIC) against S. aureus ATCC 13709 and in the assay on E. coli ATCC 25922 was at most 0.5 µg/mL throughout.

`CNc1cc(F)cc2c1[nH]c1nc(Oc3cnc4c(c3)ncn4C3CC3)nc(N3CC(N)C4(CC4)C3)c12` (centres unmarked) [4.362]: the “MIC Sa” value with S. aureus ATCC 13709 was at most 0.5 µg/mL. Further, the “MIC Ec” value against E. coli ATCC 25922 was determined as 1 µg/mL (≈ 2 µM).

In the case of `CNc1cc(F)cc2c1[nH]c1nc(Oc3cnc4c(c3)ncn4C3CC3)nc(N3CC4C[C@@H](N)C4C3)c12` (some centres unmarked) [4.363], the MIC with S. aureus ATCC 13709 was at most 0.5 µg/mL; against E. coli ATCC 25922, 1 µg/mL (≈ 2 µM).

In the case of `CNc1cc(F)cc2c1[nH]c1nc(Oc3cnc4c(c3)ncn4C3CC3)nc(N3CC(N)C3)c12` [4.364], in the assay on S. aureus ATCC 13709, the “MIC Sa” value is at most 0.5 µg/mL. Also, the “MIC Ec” value with E. coli ATCC 25922 was determined as 4 µg/mL (≈ 8.71 µM).

With `CNc1cc(F)cc2c1[nH]c1nc(Oc3ccc4cncnc4c3)nc(N3CC4[C@H](N)C[C@]4(C)C3)c12` (some centres unmarked) [4.366], the MIC in the assay on S. aureus ATCC 13709 is at most 0.5 µg/mL; in the assay with E. coli ATCC 25922 it was 1 µg/mL (≈ 2.06 µM).

For the compound `CNc1cc(F)cc2c1[nH]c1nc(Oc3cnc(CC(=O)OC)nc3)nc(N3CC4C[C@@H](N)C4C3)c12` (some centres unmarked) [4.367], the MIC against S. aureus ATCC 13709 and in the assay on E. coli ATCC 25922 was at most 0.5 µg/mL in each case.

Turning to `CNc1cc(F)cc2c1[nH]c1nc(Oc3cnc(CC(=O)OC)nc3)nc(N3C[C@H](N)C4(CC4)C3)c12` [4.368], the MIC with S. aureus ATCC 13709 and in the assay with E. coli ATCC 25922 was at most 0.5 µg/mL throughout.

Regarding `CNc1cc(F)cc2c1[nH]c1nc(Oc3cnc(CC(=O)N4CCOCC4)nc3)nc(N3C[C@H](N)C4(CC4)C3)c12` [4.369], the MIC in the assay on S. aureus ATCC 13709 is at most 0.5 µg/mL; in the assay on E. coli ATCC 25922, 1 µg/mL (≈ 1.83 µM).

On to `CNc1cc(F)cc2c1[nH]c1nc(Oc3cnc(CC(=O)N(C)OC)nc3)nc(N3C[C@H](N)C4(CC4)C3)c12` [4.370], for which the MIC in the assay on S. aureus ATCC 13709 is at most 0.5 µg/mL; with E. coli ATCC 25922, 1 µg/mL (≈ 1.92 µM).

For the compound `CNc1cc(F)cc2c1[nH]c1nc(Oc3cnc(CC(=O)NOC)nc3)nc(N3CC(N)C4(CC4)C3)c12` (centres unmarked) [4.371], the “MIC Sa” value with S. aureus ATCC 13709 is 1 µg/mL (≈ 1.97 µM). The “MIC Ec” value in the assay on E. coli ATCC 25922 amounted to 16 µg/mL (≈ 31.5 µM).

Consider `CNc1cc(F)cc2c1[nH]c1nc(Oc3cnc(CC(=O)N4CCC(N)C4)nc3)nc(N3CC(N)C4(CC4)C3)c12` (centres unmarked) [4.372], for which the “MIC Sa” value in the assay on S. aureus ATCC 13709 was found to be 4 µg/mL (≈ 7.32 µM). The “MIC Ec” value with E. coli ATCC 25922 is 16 µg/mL (≈ 29.3 µM).

For `CNc1cc(F)cc2c1[nH]c1nc(Oc3cnc(CC(=O)N4CC(N(C)C)C4)nc3)nc(N3C[C@H](N)C4(CC4)C3)c12` [4.373], the MIC in the assay on S. aureus ATCC 13709 was 2 µg/mL (≈ 3.57 µM); in the assay on E. coli ATCC 25922, 8 µg/mL (≈ 14.3 µM).

Consider `CNc1cc(F)cc2c1[nH]c1nc(Oc3cnc(C(N)=O)nc3)nc(N3C[C@H]4C[C@@H](N)[C@H]4C3)c12` [4.374], for which the MIC in the assay with S. aureus ATCC 13709 is at most 0.5 µg/mL; with E. coli ATCC 25922 it was 4 µg/mL (≈ 8.63 µM).

For the compound `CNc1cc(F)cc2c1[nH]c1nc(Oc3cnc(C(N)=O)nc3)nc(N3C[C@H](N)C4(CC4)C3)c12` [4.375], the MIC was at most 0.5 µg/mL against S. aureus ATCC 13709 and 4 µg/mL (≈ 8.63 µM) against E. coli ATCC 25922.

As to `CNc1cc(F)cc2c1[nH]c1nc(Oc3ccc4nc5n(c(=O)c4c3)CCC5)nc(N3CC4C[C@@H](N)C4C3)c12` (some centres unmarked) [4.376], the MIC with S. aureus ATCC 13709 and in the assay with E. coli ATCC 25922 was above 16 µg/mL throughout.

For the compound `CNc1cc(F)cc2c1[nH]c1nc(Oc3ccc4nc5n(c(=O)c4c3)CCC5)nc(N3CC4(CCC4N)C3)c12` (centres unmarked) [4.377], the “MIC Sa” value against S. aureus ATCC 13709 was found to be 4 µg/mL (≈ 7.6 µM). Besides, the “MIC Ec” value in the assay with E. coli ATCC 25922 came to 16 µg/mL (≈ 30.4 µM).

On to `CNc1cc(F)cc2c1[nH]c1nc(Oc3cnc(Cl)nc3)nc(N3CC4CC(N)C4C3)c12` (centres unmarked) [4.378], for which, in the assay with S. aureus ATCC 13709, the “MIC Sa” value is at most 0.5 µg/mL. In addition, in the assay on E. coli ATCC 25922, the “MIC Ec” value is at most 0.5 µg/mL.

With `CNc1cc(F)cc2c1[nH]c1nc(Oc3cnc(Cl)nc3)nc(N3CC4C(N)CC4(C)C3)c12` (centres unmarked) [4.379], the “MIC Sa” value in the assay with S. aureus ATCC 13709 was at most 0.5 µg/mL. Moreover, the “MIC Ec” value in the assay with E. coli ATCC 25922 was at most 0.5 µg/mL.

Regarding `CNc1cc(F)cc2c1[nH]c1nc(Oc3ccc4c(c3)C(=O)NC43CC3)nc(N3CC4(CCC4N)C3)c12` (centres unmarked) [4.380], in the assay with S. aureus ATCC 13709, the “MIC Sa” value came out at 4 µg/mL (≈ 8.01 µM). For the same compound, the “MIC Ec” value in the assay with E. coli ATCC 25922 stood at 16 µg/mL (≈ 32 µM).

As for `CNc1cc(F)cc2c1[nH]c1nc(Oc3ccc4c(c3)C(=O)NC43CC3)nc(N3CC4CC(N)C4C3)c12` (centres unmarked) [4.381], in the assay with S. aureus ATCC 13709, the “MIC Sa” value stood at 4 µg/mL (≈ 8.01 µM). Further, the “MIC Ec” value in the assay on E. coli ATCC 25922 stood at 16 µg/mL (≈ 32 µM).

For `CNc1cc(F)cc2c1[nH]c1nc(Oc3cc(O)c4c(C)cc(=O)oc4c3)nc(N3CC4CC(N)C4C3)c12` (centres unmarked) [4.382], the “MIC Sa” value against S. aureus ATCC 13709 is 1 µg/mL (≈ 1.94 µM). Moreover, the “MIC Ec” value in the assay on E. coli ATCC 25922 turned out to be 16 µg/mL (≈ 31 µM).

Turning to `CNc1cc(F)cc2c1[nH]c1nc(Oc3cc(O)cc4oc(=O)cc(C)c34)nc(N3CC4CC(N)C4C3)c12` (centres unmarked) [4.383], in the assay with S. aureus ATCC 13709, the “MIC Sa” value came out at 4 µg/mL (≈ 7.74 µM). Besides, in the assay on E. coli ATCC 25922, the “MIC Ec” value is above 16 µg/mL.

`CCNC(=O)c1cncc(Oc2nc(NCC)c3c(n2)[nH]c2c(NC)cc(F)cc23)c1` [4.384]: the “MIC Sa” value against S. aureus ATCC 13709 worked out at 1 µg/mL (≈ 2.36 µM). Besides, in the assay on E. coli ATCC 25922, the “MIC Ec” value was above 16 µg/mL.

For the compound `CNc1cc(F)cc2c1[nH]c1nc(Oc3cnc(S(C)(=O)=O)nc3)nc(N3CC4C(N)CC4(C)C3)c12` (centres unmarked) [4.385], the “MIC Sa” value with S. aureus ATCC 13709 is at most 0.5 µg/mL. Also, the “MIC Ec” value with E. coli ATCC 25922 is at most 0.5 µg/mL.

Consider `CNc1cc(F)cc2c1[nH]c1nc(Oc3cnc(CO)nc3)nc(N3CC4CC(N)C4C3)c12` (centres unmarked) [4.386], for which the MIC against S. aureus ATCC 13709 and in the assay on E. coli ATCC 25922 was at most 0.5 µg/mL in each case.

Regarding `CNc1cc(F)cc2c1[nH]c1nc(Oc3cnc(CO)nc3)nc(N3CC(N)C4(CC4)C3)c12` (centres unmarked) [4.387], in the assay with S. aureus ATCC 13709, the “MIC Sa” value was at most 0.5 µg/mL. The “MIC Ec” value in the assay on E. coli ATCC 25922 is at most 0.5 µg/mL.

For `CNc1cc(F)cc2c1[nH]c1nc(Oc3cnc(CO)nc3)nc(N3CC4(CC[C@H]4N)C3)c12` [4.388], the MIC with S. aureus ATCC 13709 and against E. coli ATCC 25922 was at most 0.5 µg/mL each time.

For `CNc1cc(F)cc2c1[nH]c1nc(Oc3cnc(CO)nc3)nc(N3CC4C(N)CC4(C)C3)c12` (centres unmarked) [4.389], the “MIC Sa” value with S. aureus ATCC 13709 is at most 0.5 µg/mL. The “MIC Ec” value against E. coli ATCC 25922 was at most 0.5 µg/mL.
